Reference: patent US9695155B2, “Herbicidal substituted pyrimidinyloxy benzene compounds” (E. I. DU PONT DE NEMOURS AND COMPANY, priority 2013, dated 2017)

Tests used:
Experiment in all cases: Test E postemergence
corn = type: in vivo, Zea mays; conditions: Zea mays, post-emergence
Source text: (§1) Seeds of plant species selected from corn (Zea mays), soybean (Glycine max), velvetleaf (Abutilon theophrasti), lambsquarters (Chenopodium album), wild poinsettia (Euphorbia heterophylla), palmer pigweed (Amaranthus palmeri), waterhemp (common waterhemp, Amaranthus rudis), surinam grass (Brachiaria decumbens), large (Lg) crabgrass (Digitaria sanguinalis), Brazilian crabgrass (Digitaria horizontalis), fall panicum (Panicum dichotomiflorum), giant foxtail (Setaria faberii), green foxtail (Setaria viridis), goosegrass (Eleusine indica), johnsongrass (Sorghum halepense), ragweed (common ragweed, Ambrosia elatior), barnyardgrass (Echinochloa crus-galli), sandbur (southern sandbur, Cenchrus echinatus), arrowleaf sida (Sida rhombifolia), Italian ryegrass (Lolium multiflorum), dayflower (Virginia (VA) dayflower, Commelina virginica), field bindweed (Convolvulus arvensis), morningglory (Ipomoea coccinea), nightshade (eastern black nightshade, Solanum ptycanthum), kochia (Kochia scoparia), yellow nutsedge (Cyperus esculentus), cocklebur (common cocklebur, Xanthium strumarium), smartweed (ladysthumb smartweed, and hairy beggarticks (Bidens pilosa), were planted into a silt loam soil and treated preemergence with test chemicals formulated in a non-phytotoxic solvent mixture which included a surfactant.
(§2) At the same time, plants from these crop and weed species and also horseweed (Canada horseweed, Conyza canadensis), waterhemp_RES1, (ALS & Triazine resistant common waterhemp, Amaranthus rudis), and waterhemp_RES2, (ALS & HPPD resistant common waterhemp, Amaranthus rudis) were planted in pots containing Redi-Earth® planting medium (Scotts Company, 14111 Scottslawn Road, Marysville, Ohio 43041) comprising spaghnum peat moss, vermiculite, wetting agent and starter nutrients were treated with postemergence applications of test chemicals formulated in the same manner. Plants ranged in height from 2 to 18 cm for postemergence treatments (1- to 4-leaf stage). Treated plants and controls were maintained in a greenhouse for 14 to 21 days, after which time all species were compared to controls and visually evaluated. Plant response ratings, summarized in Table E, are based on a scale of 0 to 100 where 0 is no effect and 100 is complete control. A dash (-) response means no test result.

wild poinsettia = type: in vivo, Euphorbia heterophylla; conditions: Euphorbia heterophylla, post-emergence, read-out: Plant response rating, Poinsettia, Wild
Method in brief: (§3)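 Compound in a non-phytotoxic solvent mixture with surfactant was applied preemergence to seeds in silt loam soil, or postemergence to plants 2 to 18 cm tall grown in peat-based potting medium. Plants were kept in a greenhouse for 14 to 21 days, then rated visually against untreated controls on a 0 (no effect) to 100 (complete control) scale.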

palmer pigweed = type: in vivo, Amaranthus palmeri; conditions: post-emergence, read-out: Plant response rating, Pigweed, Palmer
Method in brief: as §3

waterhemp = type: in vivo, Amaranthus rudis; conditions: Amaranthus tuberculatus, post-emergence, read-out: Plant response rating, Waterhemp
Method in brief: as §3

Brazilian crabgrass = type: in vivo, Digitaria horizontalis; conditions: Digitaria horizontalis, post-emergence, read-out: Plant response rating, Crabgrass, Brazil
Source text: as §1, §2

fall panicum = type: in vivo, Panicum dichotomiflorum; conditions: Panicum dichotomiflorum, post-emergence, read-out: Plant response rating, Panicum, Fall
Method in brief: as §3

sandbur = type: in vivo, Cenchrus echinatus; conditions: Cenchrus echinatus, post-emergence, read-out: Plant response rating, Sandbur
Method in brief: as §3

field bindweed = type: in vivo, Convolvulus arvensis; conditions: Convolvulus arvensis, post-emergence, read-out: Plant response rating, Field Bindweed
Source text: as §1, §2

hairy beggarticks = type: in vivo, Bidens pilosa; conditions: Bidens pilosa, post-emergence, read-out: Plant response rating, Beggarticks
Source text: as §1, §2

[1] = Postemergence, 31 g ai/ha, scale 0 to 100
[2] = Postemergence, 62 g ai/ha, scale 0 to 100
[3] = Postemergence, 125 g ai/ha, scale 0 to 100
[4] = postemergence, 16 g ai/ha, scale 0 to 100, 0 no effect, 100 complete control

SMILES: N#Cc1cccc(Oc2ncc(F)cn2)c1-n1cc(C(F)(F)F)cn1 [Compound 79, 3-[(5-fluoro-2-pyrimidinyl)oxy]-2-[4-(trifluoromethyl)-1H-pyrazol-1-yl]benzonitrile]
- corn plant response (injury) rating, 0-100 at 31 g/ha (corn; [1]): 0%
- corn plant response (injury) rating, 0-100 at 62 g/ha (corn; [2]): 10%
- corn plant response (injury) rating, 0-100 at 125 g/ha (corn; [3]): 15%
- corn plant response (injury) rating, 0-100 at 16 g/ha (corn; [4]): 0%
- pest or weed control at 31 g/ha (wild poinsettia; [1]): 40%
- pest or weed control at 62 g/ha (wild poinsettia; [2]): 50%
- pest or weed control at 125 g/ha (wild poinsettia; [3]): 60%
- pest or weed control at 16 g/ha (wild poinsettia; [4]): 40%
- pest or weed control at 31 g/ha (palmer pigweed; [1]): 50%
- pest or weed control at 62 g/ha (palmer pigweed; [2]): 95%
- pest or weed control at 125 g/ha (palmer pigweed; [3]): 90%
- pest or weed control at 16 g/ha (palmer pigweed; [4]): 50%
- pest or weed control at 31 g/ha (waterhemp; [1]): 90%
- pest or weed control at 62 g/ha (waterhemp; [2]): 85%
- pest or weed control at 125 g/ha (waterhemp; [3]): 100%
- pest or weed control at 16 g/ha (waterhemp; [4]): 70%
- pest or weed control at 31 g/ha (Brazilian crabgrass; [1]): 10%
- pest or weed control at 62 g/ha (Brazilian crabgrass; [2]): 20%
- pest or weed control at 125 g/ha (Brazilian crabgrass; [3]): 30%
- pest or weed control at 16 g/ha (Brazilian crabgrass; [4]): 0%
- pest or weed control at 31 g/ha (fall panicum; [1]): 35%
- pest or weed control at 62 g/ha (fall panicum; [2]): 30%
- pest or weed control at 125 g/ha (fall panicum; [3]): 30%
- pest or weed control at 16 g/ha (fall panicum; [4]): 20%
- pest or weed control at 31 g/ha (sandbur; [1]): 0%
- pest or weed control at 62 g/ha (sandbur; [2]): 0%
- pest or weed control at 125 g/ha (sandbur; [3]): 10%
- pest or weed control at 16 g/ha (sandbur; [4]): 0%
- pest or weed control at 31 g/ha (field bindweed; [1]): 70%
- pest or weed control at 62 g/ha (field bindweed; [2]): 80%
- pest or weed control at 125 g/ha (field bindweed; [3]): 80%
- pest or weed control at 16 g/ha (field bindweed; [4]): 60%
- pest or weed control at 31 g/ha (hairy beggarticks; [1]): 50%
- pest or weed control at 62 g/ha (hairy beggarticks; [2]): 75%
- pest or weed control at 125 g/ha (hairy beggarticks; [3]): 80%
- pest or weed control at 16 g/ha (hairy beggarticks; [4]): 40%
